Test results published in ChEMBL document CHEMBL4342450, “Antitumor Activity of Ohmyungsamycin A through the Regulation of the Skp2-p27 Axis and MCM4 in Human Colorectal Cancer Cells” (J Nat Prod, 2020).
pIC50: −log10 of the molar value. Calls of active or inactive are those of the source. The calls are words filed in the database; no cut-off is given here. *1 amine or outer side, *2 acyl side, *3 side chain or, on linkers, in order; H or OH if unused. Where a SMILES comes first, the peptide text is derived from it. Bridges are numbered along the chain shown (N, C = ends). [ ]: non-standard residue; d: D form. Phe(3R-OH) = O=C([C@@H](N[*:1])[C@H](O[*:3])c1ccccc1)[*:2]; NMeTrp(4-OMe) = CN[C@@H](Cc1c[nH]c2cccc(OC)c12)C(=O)O; NMeT = CN[C@H](C(=O)O)[C@@H](C)O; NMeL = CN[C@@H](CC(C)C)C(=O)O; NMeV = CN[C@H](C(=O)O)C(C)C

Experiments:
HCT-116 [1] = assay: Downregulation of SCARA3 gene expression in human HCT116 cells assessed as fold change at 15 uM incubated for 24 hrs by cDNA microarray analysis relative to control; format: functional
HCT-116 [2] = assay: Decrease in cell cycle associated protein expression in human HCT116 cells assessed as reduction in cyclin E expression at 5 to 20 uM after 24 hrs by Western blot analysis; format: functional, cell-based
HCT-116 [3] = assay: Induction of cell cycle arrest in human HCT116 cells assessed as accumulation at G0/G1 phase incubated for 18 hrs by propidium iodide staining based flow cytometry; format: functional
HCT-116 [4] = assay: Induction of cell cycle arrest in human HCT116 cells assessed as accumulation at G0/G1 phase at 10 uM incubated for 18 hrs by propidium iodide staining based flow cytometry (reference value: 43.3%); format: functional
HCT-116 [5] = assay: Downregulation of PEG10 gene expression in human HCT116 cells assessed as fold change at 15 uM incubated for 24 hrs by cDNA microarray analysis relative to control; format: functional
Mus musculus [6] = assay: In vivo modulation of Skp2-p27 axis in tumor of BALB/c nude mouse xenografted with human HCT116 cells assessed as downregulation of Skp2 mRNA level at 5 to 10 m/kg, ip administered thrice a week for 3.5 weeks by RT-PCR method; format: functional, organism-based
HCT-116 [7] = assay: Antitumor activity against human HCT116 cells xenografted in BALB/c nude mouse assessed as tumor weight at 10 mg/kg, ip administered thrice a week for 3.5 weeks measured on last day (reference value: 100%); format: functional
HCT-116 [8] = assay: Induction of cell cycle arrest in human HCT116 cells assessed as accumulation at S phase at 10 uM incubated for 18 hrs by propidium iodide staining based flow cytometry (reference value: 26.8%); format: functional
HCT-116 [9] = assay: Antitumor activity against human HCT116 cells xenografted in BALB/c nude mouse assessed as reduction in tumor volume at 5 to 10 mg/kg, ip administered thrice a week for 3.5 weeks and measured […] by caliper method; format: functional, organism-based
HCT-116 [10] = assay: Downregulation of HSPA1B gene expression in human HCT116 cells assessed as fold change at 15 uM incubated for 24 hrs by cDNA microarray analysis relative to control; format: functional
HCT-116 [11] = assay: Downregulation of INSIG1 gene expression in human HCT116 cells assessed as fold change at 15 uM incubated for 24 hrs by cDNA microarray analysis relative to control; format: functional
HCT-116 [12] = assay: Induction of cell cycle arrest in human HCT116 cells assessed as accumulation at sub-G1 phase at 5 uM incubated for 24 hrs by propidium iodide staining based flow cytometry (reference value: 4.8%); format: functional
HCT-116 [13] = assay: Downregulation of MCM4 mRNA expression in human HCT116 cells after 12 hrs by RT-PCR method; format: functional, cell-based
HCT-116 [14] = assay: Downregulation of TMSB15A gene expression in human HCT116 cells assessed as fold change at 15 uM incubated for 24 hrs by cDNA microarray analysis relative to control; format: functional
HCT-116 [15] = assay: Induction of cell cycle arrest in human HCT116 cells assessed as accumulation at G2/M phase at 5 uM incubated for 18 hrs by propidium iodide staining based flow cytometry (reference value: 25.1%); format: functional
HCT-116 [16] = assay: Downregulation of SKP2 gene expression in human HCT116 cells assessed as fold change at 15 uM incubated for 24 hrs by cDNA microarray analysis relative to control; format: functional
HCT-116 [17] = assay: Decrease in cell cycle associated protein expression in human HCT116 cells assessed as reduction in CDK6 expression at 5 to 20 uM after 24 hrs by Western blot analysis; format: functional, cell-based
HCT-116 [18] = assay: Antitumor activity against human HCT116 cells xenografted in BALB/c nude mouse assessed as tumor weight at 5 mg/kg, ip administered thrice a week for 3.5 weeks measured on last day (reference value: 100%); format: functional
HCT-116 [19] = assay: Induction of cell cycle arrest in human HCT116 cells assessed as accumulation at G0/G1 phase at 20 uM incubated for 24 hrs by propidium iodide staining based flow cytometry (reference value: 54.7%); format: functional
SK-HEP1 = assay: Antiproliferative activity against human SKHEP1 cells after 72 hrs by sulforhodamine B assay; format: functional, cell-based; details: SK-HEP1, 72 h
HCT-116 [20] = assay: Modulation of Skp2-p27 Axis in human HCT116 cells assessed as upregulation of p21 expression after 24 hrs by Western blot analysis; format: functional, cell-based
HCT-116 [21] = assay: Induction of cell cycle arrest in human HCT116 cells assessed as accumulation at S phase at 5 uM incubated for 18 hrs by propidium iodide staining based flow cytometry (reference value: 26.8%); format: functional
HCT-116 [22] = assay: Induction of cell cycle arrest in human HCT116 cells assessed as accumulation at S phase at 10 uM incubated for 24 hrs by propidium iodide staining based flow cytometry (reference value: 21.2%); format: functional
HCT-116 [23] = assay: Downregulation of MCM4 protein expression in human HCT116 cells at 5 to 20 uM after 24 hrs by Western blot analysis; format: functional, cell-based
HCT-116 [24] = assay: Induction of apoptosis in human HCT116 cells assessed as reduction in Bcl-2 level at 5 to 20 uM after 24 hrs by Western blot analysis; format: functional, cell-based
HCT-116 [25] = assay: Induction of morphological changes in human HCT116 cells assessed as appearance of pin-point shape cells at 4 to 20 uM by inverted phase-contrast microscopic method; format: functional, cell-based
HCT-116 [26] = assay: Induction of cell cycle arrest in human HCT116 cells assessed as accumulation at G0/G1 phase at 5 uM incubated for 18 hrs by propidium iodide staining based flow cytometry (reference value: 43.3%); format: functional
HCT-116 [27] = assay: Induction of apoptosis in human HCT116 cells assessed as reduction in uncleaved full length caspase 7 level after 24 hrs by Western blot analysis; format: functional, cell-based
HCT-116 [28] = assay: Downregulation of MCM10 gene expression in human HCT116 cells assessed as fold change at 15 uM incubated for 24 hrs by cDNA microarray analysis relative to control; format: functional
HCT-116 [29] = assay: Induction of apoptosis in human HCT116 cells assessed as increase in cleaved caspase 8 level after 24 hrs by Western blot analysis; format: functional, cell-based
HCT-116 [30] = assay: Antiproliferative activity against human HCT116 cells after 72 hrs by sulforhodamine B assay; format: functional, cell-based
Mus musculus [31] = assay: In vivo modulation of MCM4 in tumor of BALB/c nude mouse xenografted with human HCT116 cells assessed as downregulation of MCM4 mRNA level at 5 to 10 m/kg, ip administered thrice a week for 3.5 weeks by RT-PCR method; format: functional, organism-based
HCT-116 [32] = assay: Modulation of Skp2-p27 Axis in human HCT116 cells assessed as reduction in Skp2 mRNA level at 5 to 20 uM after 12 hrs by real-time PCR method; format: functional, cell-based
HCT-116 [33] = assay: Decrease in cell cycle associated protein expression in human HCT116 cells assessed as reduction in CDK4 expression at 5 to 20 uM after 24 hrs by Western blot analysis; format: functional, cell-based
HCT-116 [34] = assay: Downregulation of MCM5 gene expression in human HCT116 cells assessed as fold change at 15 uM incubated for 24 hrs by cDNA microarray analysis relative to control; format: functional
MDA-MB-231 = assay: Antiproliferative activity against human MDA-MB-231 cells after 72 hrs by sulforhodamine B assay; format: functional, cell-based; details: MDA-MB-231, 72 h

## CN[C@H](C(=O)N[C@H](C(=O)N[C@@H]1C(=O)N(C)[C@@H]([C@@H](C)O)C(=O)N[C@@H](C(C)C)C(=O)N(C)[C@@H](CC(C)C)C(=O)N[C@@H](C(C)C)C(=O)N(C)[C@@H](C(C)C)C(=O)N(C)[C@@H](Cc2c[nH]c3cccc(OC)c23)C(=O)N[C@@H](C(C)C)C(=O)N[C@@H]([C@H](O)c2ccccc2)C(=O)N[C@@H](C(C)C)C(=O)O[C@@H]1C)C(C)C)C(C)C (H-[NMeV]VT[NMeT]V[NMeL]V[NMeV][NMeTrp(4-OMe)]V[Phe(3R-OH)]V; ester 3-C)
HCT-116 [1]
  fold change (FC): 4.372
HCT-116 [2]
  inhibition: Active
HCT-116 [3]
  Activity: Dose-dependent effect
HCT-116 [4]
  Activity: 51.4%
HCT-116 [5]
  fold change (FC): 4.917
Mus musculus [6]
  inhibition: Active
HCT-116 [7]
  Activity: 47.9%
HCT-116 [8]
  Activity: 26.6%
HCT-116 [9]
  Activity: Active
HCT-116 [10]
  fold change (FC): 4.531
HCT-116 [11]
  fold change (FC): 4.476
HCT-116 [12]
  Activity: 19%
HCT-116 [13]
  inhibition: Dose-dependent effect
HCT-116 [14]
  fold change (FC): 6.779
HCT-116 [15]
  Activity: 22.3%
HCT-116 [16]
  fold change (FC): 4.898
HCT-116 [17]
  inhibition: Active
HCT-116 [18]
  Activity: 70.3%
HCT-116 [19]
  Activity: 30.9%
SK-HEP1
  pIC50: 5.09
HCT-116 [20]
  Activity: Dose-dependent effect
HCT-116 [21]
  Activity: 27.5%
HCT-116 [22]
  Activity: 4.4%
HCT-116 [23]
  inhibition: Active
HCT-116 [24]
  Activity: Active
HCT-116 [25]
  Activity: Active
HCT-116 [26]
  Activity: 45.8%
HCT-116 [27]
  Activity: Dose-dependent effect
HCT-116 [28]
  fold change (FC): 4.889
HCT-116 [29]
  Activity: Dose-dependent effect
HCT-116 [30]
  inhibition: Dose-dependent effect
HCT-116 [30]; HCT-116, 72 h
  pIC50: 5.12
Mus musculus [31]
  inhibition: Active
HCT-116 [32]
  inhibition: Active
HCT-116 [33]
  inhibition: Active
HCT-116 [34]
  fold change (FC): 5.219
MDA-MB-231
  pIC50: 5.00
